Results on 24 compounds are retold here after patent EP0536402A1, “PIPERIDINE DERIVATIVE” (NIPPON SHINYAKU COMPANY, LIMITED, priority 1990, dated 1992).

Where a name gives a salt, the structure may show the parent alone.

One test addresses β -galactosidase. The experiment in a line: β-galactosidase inhibitory activity (colorimetric, O-nitrophenyl-β-D-galactopyranose substrate). It counts as biochemical, Aspergillus sp. Conditions: Test Example 1; acetate buffer pH 5.0, 37°C, 15 minutes. The procedure:
The assay of this activity was carried out by permitting β -galactosidase to act on the substrate O-nitrophenyl-β -D-galactopyranose and quantitating O-nitrophenol, which was released on hydrolysis, colorimetrically. Thus, a mixture of 0.9 ml of 100 mM acetate buffer (pH 5.0), 0.1 ml of a solution of the test substance (dissolved in 100 mM acetate buffer at pH 5.0) and 0.5 ml of a 20 mM substrate solution was previously warmed at 37°C for […] and, then, dissolved in 10 mM acetate buffer at pH 5.0. Then, 0.5 ml of a solution of β -galactosidase was added and the reaction was conducted at 37°C for 15 minutes. The absorbance (A) at 420 nm was then measured. The absorbance (B) of a reaction mixture not containing the test substance was also measured and using the equation of % inhibition = (B - A)/B x 100 [formula] , the concentration of the test substance causing 50% inhibition of β -galactosidase activity (IC₅₀) was determined. The β -galactosidase derived from Aspergillus sp. was used. It is clear that the compound of the present invention has high β -galactosidase inhibitory activity.
As for `CCCCCCCN1C[C@H](O)[C@@H](O)[C@@H](O)[C@H]1CO` [Example 5, N-n-heptyl-1-deoxygalacto-statin], the IC₅₀ was found to be 32 ng/mL. On the same count and under the same terms, to `OC[C@H]1NC[C@H](O)[C@@H](O)[C@H]1O` [1-deoxygalactostatin hydrochloride, reference compound] belongs 451 ng/mL; to `OC[C@@H]1[C@H](O)[C@H](O)[C@@H](O)CN1CCCc1ccccc1` [Example 7, N-(3-phenylpropyl)-1-deoxygalactostatin], 88 ng/mL; to `C=CCN1C[C@H](O)[C@@H](O)[C@@H](O)[C@H]1CO` [Example 9, N-allyl-1-deoxygalactostatin], 187 ng/mL. The compound `CCN1C[C@H](O)[C@@H](O)[C@@H](O)[C@H]1CO` [Example 2, N-ethyl-1-deoxygalactostatin] returned an IC₅₀ of 82 ng/mL. Same read-out and setting: to `CC(C)CN1C[C@H](O)[C@@H](O)[C@@H](O)[C@H]1CO` [Example 4, N-isobutyl-1-deoxygalactostatin] belongs 40 ng/mL.

Take `OC[C@@H]1[C@H](O)[C@H](O)[C@@H](O)CN1Cc1ccc(Cl)cc1` [Example 8, N-p-chlorobenzyl-1-deoxygalactostatin]: the IC₅₀ was 180 ng/mL. On to `CCCN1C[C@H](O)[C@@H](O)[C@@H](O)[C@H]1CO` [Example 3, N-n-propyl-1-deoxygalactostatin], for which the IC₅₀ amounted to 44 ng/mL. The same measure, in the same setting: to `OC[C@@H]1[C@H](O)[C@H](O)[C@@H](O)CN1CC=Cc1ccccc1` [Example 10, N-cinnamyl-1-deoxygalactostatin] belongs 175 ng/mL; to `CCCCCCCCCCCCN1C[C@H](O)[C@@H](O)[C@@H](O)[C@H]1CO` [Example 6, N-n-dodecyl-1-deoxygalactostatin], 23 ng/mL. Same read-out and setting: to `CN1C[C@H](O)[C@@H](O)[C@@H](O)[C@H]1CO` [Example 1, N-methyl-1-deoxygalactostatin] belongs 15 ng/mL.

The test is the same for the next values; noted with them: Test Example 2; acetate buffer pH 5.0, 37°C, 15 minutes.
`OC[C@@H]1[C@H](O)[C@H](O)[C@@H](O)CN1Cc1ccc(-c2ccccc2)cc1` [Example 12, N-(p-phenylbenzyl)-1-deoxygalactostatin] came in with an IC₅₀ of 166 ng/mL. On the same count and under the same terms, the figure for `CCCCN1C[C@H](O)[C@@H](O)[C@@H](O)[C@H]1CO` [Example 23, N-n-butyl-1-deoxygalactostatin] is 154 ng/mL; for `CC(=O)Nc1ccc(CN2C[C@H](O)[C@@H](O)[C@@H](O)[C@H]2CO)cc1` [Example 18, N-(p-acetamidobenzyl)-1-deoxygalactostatin] it is 340 ng/mL; for `O=C(O)CCCN1C[C@H](O)[C@@H](O)[C@@H](O)[C@H]1CO` [Example 24, N-(3-carboxypropyl)-1-deoxygalactostatin] it is 351 ng/mL.

`OC[C@H]1NC[C@H](O)[C@@H](O)[C@H]1O` [1-deoxygalactostatin hydrochloride, reference compound] came in with an IC₅₀ of 440 ng/mL. Compound `OC[C@@H]1[C@H](O)[C@H](O)[C@@H](O)CN1CCc1ccccc1` [Example 16, N-phenylethyl-1-deoxygalactostatin] returned an IC₅₀ of 21 ng/mL. The same measure, in the same setting: the figure for `OC[C@@H](O)[C@H](O)[C@H](O)[C@@H](O)CN1C[C@H](O)[C@@H](O)[C@@H](O)[C@H]1CO` [Example 17, N-(1'-deoxygalactitoyl)-1-deoxygalactostatin] is 49 ng/mL; for `CSCCCN1C[C@H](O)[C@@H](O)[C@@H](O)[C@H]1CO` [Example 21, N-(3'-methylthiopropyl)-1-deoxygalactostatin] it is 49 ng/mL. Same read-out and setting: the figure for `OC[C@@H]1[C@H](O)[C@H](O)[C@@H](O)CN1CC1CCCCC1` [Example 20, N-cyclohexylmethyl-1-deoxygalactostatin] is 37 ng/mL; for `COCCN1C[C@H](O)[C@@H](O)[C@@H](O)[C@H]1CO` [Example 11, N-methoxyethyl-1-deoxygalactostatin] it is 59 ng/mL; for `COc1ccc(CN2C[C@H](O)[C@@H](O)[C@@H](O)[C@H]2CO)cc1` [Example 14, N-p-methoxybenzyl-1-deoxygalactostatin] it is 391 ng/mL. On the same count and under the same terms, the figure for `CSc1ccc(CN2C[C@H](O)[C@@H](O)[C@@H](O)[C@H]2CO)cc1` [Example 15, N-p-methylthiobenzyl-1-deoxygalactostatin] is 393 ng/mL; for `CCCCCN1C[C@H](O)[C@@H](O)[C@@H](O)[C@H]1CO` [Example 13, N-n-pentylnyl-1-deoxygalactostatin] it is 113 ng/mL. As for `COc1ccc(CN2C[C@H](O)[C@@H](O)[C@@H](O)[C@H]2CO)cc1C` [Example 22, N-(3'-methyl-4'-methoxybenzyl)-1-deoxygalactostatin], the IC₅₀ is 359 ng/mL.
